One assay has as its system male CDF8F1 mice. As to the kind of experiment: Doxorubicin-induced myelosuppression. It counts as in vivo, mouse. The method, then:
Doxorubicin (Adriamycin) is a widely-used anticancer agent effective against breast carcinoma, sarcomas, small-cell lung cancer, ovarian cancer, thyroid cancer, Hodgkin's Disease and non-Hodgkins lymphoma. Its clinical application is limited by its cardiac and hematologic toxicities. A study was conducted to assess the effect of N^2 3′,5′-tripalmitoyldeoxyguanosine (PdG) in reducing the hematologic toxicity of doxorubicin. Eighty male CDF8F1 mice were divided into three groups. One group received no treatment and served as basal control animals. Animals in the other two groups were each given a single dose of doxorubicin at a dose of 11 mg/kg by intraperitoneal injection. Beginning 24 hours later, animals in the two groups received three daily doses by intraperitoneal injection of either PdG or vehicle only. Blood samples were obtained by retro-orbital eye bleed just prior to administration of doxorubicin and then 4, 8, 11 and 14 days thereafter. Complete blood cell counts with differential were determined.

In another assay the test system is IFN-gamma. As to the kind of experiment: LPS-induced serum interferon-gamma (ELISA). It counts as in vivo, mouse. The method, then:
Sixty-three female Balb/C mice were randomly assigned to one of three groups. The animals in one group received a single daily dose of N^2,3′,5′-tripalmitoyldeoxyguanosine (PdG) (25 mg/kg, i.p.), while a second group received a single daily dose of the PdG treatment vehicle (control). The third group was left untreated. On the fourth day 100 μg salmonella typhimurium LPS was administered to all three groups. Serum samples were taken just prior to LPS administration (t=0) and at two, four, six, eight, ten, twelve, sixteen, and twenty hours after LPS administration. The samples were then frozen until the time of assay. Serum levels of TNF-alpha, and IFN-gamma were measured by ELISA.
In the tables below, units for cytokine concentrations are picograms per ml. A value of 0 indicates cytokine levels below the detection limit of the assay (50 to 100 pg/ml).

The next assay concerns thymocytes. In words: Corticosteroid-induced apoptosis in mouse thymus. The assay is classed as in vivo. The method, then:
Thymic lymphocytes, or thymocytes, undergo a suicide process known as apoptosis or programmed cell death in response to various stimuli, including ionizing radiation, calcium ionophores, glucocorticoid hormones, and other agents. Apoptosis is also part of the normal physiological process of development and of lymphocyte (and other cell) selection.
Eight male B6D2F1 mice weighing approximately twenty-five grams were given a single injection of either palmitoyldeoxyguanosine (25 mg/kg, i.p.) in a Tween-DMSO vehicle (0.02% Tween and 7.5% DMSO in physiological saline) or vehicle alone. Forty-eight hours later these mice were given an i.p. injection of a long-acting corticosteroid, methylprednisolone acetate (Depo-Medrol; 250 mg/kg). Forty-eight hours following administration of the corticosteroid, all eight of these animals and four additional untreated animals (basals) were sacrificed by cervical dislocation, the thymuses and spleens removed and weighed, and thymic cell number and viability measured by established methods.

The mark [1] stands for this setting: Day 4 after doxorubicin 11 mg/kg.
Where [2] appears, read: Day 8 after doxorubicin 11 mg/kg.
[3] abbreviates: Day 14 after doxorubicin 11 mg/kg.

Results on one compound are retold here after US7307166B1, “Oxpurine nucleosides and their congeners, and acyl, derivatives thereof, for improvement of hematopoiesis” (Wellstat Therapeutics Corporation, priority 1987, dated 2007).

For `CCCCCCCCCCCCCCCC(=O)Nc1nc2c(ncn2[C@H]2C[C@H](OC(=O)CCCCCCCCCCCCCCC)[C@@H](COC(=O)CCCCCCCCCCCCCCC)O2)c(=O)[nH]1` [PdG, 3′,5′-O-N^2-tripalmitoyl-2′-deoxyguanosine], the Lymphocytes in the assay on male CDF8F1 mice (setting [1]) was determined as 8.07 ± 1.21 K/μL; with male CDF8F1 mice (setting [2]), 1.63 ± 0.13 K/μL; in the assay on male CDF8F1 mice (setting [3]), 2.0 ± 0.15 K/μL. Moreover, the values for the Neutrophils with male CDF8F1 mice (setting [1]), with male CDF8F1 mice (setting [2]) and in the assay on male CDF8F1 mice (setting [3]) were 4.35 ± 0.73 K/μL, 2.47 ± 0.28 K/μL and 2.3 ± 0.26 K/μL, respectively. The WBC in the assay on male CDF8F1 mice (Day 4 after doxorubicin 11 mg/kg i.p., PdG 3 daily i.p. doses from 24 h after) is on record as 13.2 ± 1.59 K/μL; with male CDF8F1 mice (setting [2]) it was 4.57 ± 0.35 K/μL; with male CDF8F1 mice (Day 11 after doxorubicin 11 mg/kg), 3.95 ± 0.42 K/μL; in the assay on male CDF8F1 mice (setting [3]), 5.0 ± 0.39 K/μL. In addition, the serum interferon-gamma in the assay with IFN-gamma (0 hr after LPS 100 μg, PdG 25 mg/kg i.p. daily before, 0 = below detection limit) turned out to be 0 picograms per ml; with IFN-gamma (2 hr after LPS, 0 = below detection limit), 0 picograms per ml; with IFN-gamma (4 hr after LPS) it was 825 ± 248 picograms per ml; in the assay with IFN-gamma (8 hr after LPS), 2129 ± 454 picograms per ml; with IFN-gamma (10 hr after LPS) it was 911 ± 279 picograms per ml; with IFN-gamma (12 hr after LPS, 0 = below detection limit) it was 0 picograms per ml. Besides, the serum interferon-gamma in the assay with IFN-gamma (16 hr after LPS, 0 = below detection limit) was found to be 0 picograms per ml; with IFN-gamma (20 hr after LPS, 0 = below detection limit), 0 picograms per ml. Further, the “area under the curve (AUC) over the entire time course” value with IFN-gamma (PdG 25 mg/kg i.p.) is “significantly lower”. The “peak IFN-gamma levels vs control values” in the assay on IFN-gamma (PdG 25 mg/kg i.p.) is recorded as “five- to seven-fold lower”. The Cells/Thymus with thymocytes (25 mg/kg i.p. 48 h before Depo-Medrol 250 mg/kg, 48 h after) is 64 ± 12 ×10^6. Further, the “Spleen Wt.” value in the assay on thymocytes (25 mg/kg i.p. once, 48 h before Depo-Medrol 250 mg/kg, 48 h after corticosteroid) amounted to 61 ± 11 mg. Further, the “% Viable” value in the assay on thymocytes (thymic cells, 25 mg/kg i.p. 48 h before Depo-Medrol 250 mg/kg, 48 h after) is 87 ± 3 %.
